Laboratory results as given in ChEMBL document CHEMBL4627398 (J Med Chem, 2020).
In brackets after ≈: the same amount, converted by molar mass.

Assays:
[1] = Metabolic stability in human liver microsomes incubated for 60 mins; format: ADME, Microsome; settings: read-out: Stability
[2] = Metabolic stability in monkey liver microsomes incubated for 60 mins; format: ADME, Macaca mulatta, Microsome; settings: rhesus monkey, read-out: Stability
[3] = Clearance in monkey at 0.1 mg/kg, iv; format: ADME, organism-based, Macaca mulatta; settings: rhesus monkey, in vivo
[4] = Lipophilicity, logD of the compound at pH 7; format: physicochemical; settings: buffer
[5] = Apparent permeability in human Caco2 cells; format: ADME, cell-based; settings: Caco-2
[6] = Solubility of the compound in human Caco2 cells; format: ADME, cell-based; settings: Caco-2 cells
[7] = Solubility of the compound in PBS buffer; format: physicochemical
[8] = Solubility of the compound in FaSSIF; format: physicochemical
[9] = Solubility of the compound in FeSSIF; format: physicochemical
[10] = Metabolic stability in rat liver microsomes incubated for 60 mins; format: ADME, Microsome; settings: read-out: Stability
[11] = Metabolic stability in dog liver microsomes incubated for 60 mins; format: ADME, Canis lupus familiaris, Microsome; settings: read-out: Stability
[12] = Metabolic stability in human hepatocytes incubated for 60 mins; format: ADME, cell-based, Hepatocyte; settings: read-out: Stability
[13] = Metabolic stability in rat hepatocytes incubated for 60 mins; format: ADME, cell-based, Hepatocyte; settings: read-out: Stability
[14] = Metabolic stability in monkey hepatocytes incubated for 60 mins; format: ADME, cell-based, Macaca mulatta, Hepatocyte; settings: rhesus monkey, read-out: Stability
[15] = Terminal half life in rat at 1 mg/kg, iv; format: ADME, organism-based; settings: in vivo, read-out: beta t1/2 (converted)
[16] = Terminal half life in dog at 0.3 mg/kg, iv; format: ADME, organism-based, Canis lupus familiaris; settings: in vivo, read-out: beta t1/2 (converted)
[17] = Total clearance in rat at 1 mg/kg, iv; format: ADME, organism-based; settings: in vivo
[18] = Total clearance in dog at 0.3 mg/kg, iv; format: ADME, organism-based, Canis lupus familiaris; settings: in vivo
[19] = Volume of distribution at steady state in rat at 1 mg/kg, iv; format: ADME, organism-based; settings: in vivo, read-out: Vdss
[20] = Volume of distribution at steady state in dog at 0.3 mg/kg, iv; format: ADME, organism-based, Canis lupus familiaris; settings: in vivo, read-out: Vdss
[21] = MRT in rat at 1 mg/kg, iv; format: ADME, organism-based; settings: in vivo
[22] = MRT in dog at 0.3 mg/kg, iv; format: ADME, organism-based, Canis lupus familiaris; settings: in vivo
[23] = Tmax in rat at 10 mg/kg, po; format: ADME, organism-based; settings: in vivo
[24] = Tmax in dog at 1 mg/kg, po; format: ADME, organism-based, Canis lupus familiaris; settings: in vivo
[25] = Cmax in rat at 10 mg/kg, po; format: ADME, organism-based; design: dose 10 mg/kg, route oral; settings: in vivo
[26] = Cmax in dog at 1 mg/kg, po; format: ADME, organism-based, Canis lupus familiaris; design: dose 1 mg/kg, route oral; settings: in vivo
[27] = Oral bioavailability in rat at 10 mg/kg; format: ADME, organism-based; settings: in vivo
[28] = Oral bioavailability in dog at 1 mg/kg; format: ADME, organism-based, Canis lupus familiaris; settings: in vivo

Question: Which results are given for `N#CCC(=O)N1CCCC12CCCN(c1ncnc3[nH]ccc13)C2` (single isomer, unassigned)?
Answer: remaining at 1 h [1]: 75.7%; remaining at 1 h [2]: 29.4%

Question: For `C[C@H]1CN(C(=O)CC#N)[C@]12CCN(c1ncnc3[nH]ccc13)C2` [DELGOCITINIB], which remaining at 1 h [1] is on record?
Answer: 97.4%

Question: And the remaining at 1 h [2]?
Answer: 99.6%

Question: What about the clearance [3] of the same molecule?
Answer: 4.83 mL/min/kg

Question: And the logD [4]?
Answer: 0.6

Question: And the Papp [5]?
Answer: 0.033 ×10⁻⁶ cm/s

Question: What about the solubility [6] of the same molecule?
Answer: 1 µM (≈ 0.31 µg/mL)

Question: And the solubility [7]?
Answer: > 95 µM

Question: What about the solubility [8] of the same molecule?
Answer: > 475 µM

Question: And the solubility [9]?
Answer: > 475 µM

Question: And the remaining at 1 h [10]?
Answer: 90.2%

Question: And the remaining at 1 h [11]?
Answer: 97.2%

Question: What about the remaining at 1 h [12] of the same molecule?
Answer: 99.3%

Question: And the remaining at 1 h [13]?
Answer: 94.7%

Question: And the remaining at 1 h [14]?
Answer: 84.8%

Question: And the half-life [15]?
Answer: 1.7 h

Question: And the half-life [16]?
Answer: 2.3 h

Question: And the clearance [17]?
Answer: 35 mL/min/kg

Question: And the clearance [18]?
Answer: 6.17 mL/min/kg

Question: What about the Vd [19] of the same molecule?
Answer: 2.1 L/kg

Question: And the Vd [20]?
Answer: 1.2 L/kg

Question: And the MRT [21]?
Answer: 1 h

Question: What about the MRT [22] of the same molecule?
Answer: 3.2 h

Question: And the Tmax [23]?
Answer: 1.5 h

Question: And the Tmax [24]?
Answer: 0.9 h

Question: What about the Cmax [25] of the same molecule?
Answer: 2.5 ng/mL

Question: What about the Cmax [26] of the same molecule?
Answer: 1.9 ng/mL

Question: And the bioavailability [27]?
Answer: 78%

Question: What about the bioavailability [28] of the same molecule?
Answer: 124%

Question: With `N#CCC(=O)N1CC(F)(F)C12CCCN(c1ncnc3[nH]ccc13)C2` (single isomer, unassigned) as the molecule, how does the remaining at 1 h [1] read?
Answer: 88.4%

Question: And the remaining at 1 h [2]?
Answer: 64.6%

Question: Which remaining at 1 h [1] does the source give for `N#CCC(=O)N1CCC12CCCN(c1ncnc3[nH]ccc13)C2` (single isomer, unassigned) here?
Answer: 93.4%

Question: And the remaining at 1 h [2]?
Answer: 85.2%

Question: And the clearance [3]?
Answer: 12.7 mL/min/kg

Question: What does the source list for `N#CCC(=O)N1CC(F)(F)C12CCN(c1ncnc3[nH]ccc13)C2` (single isomer, unassigned)?
Answer: remaining at 1 h [1]: 99.4%; remaining at 1 h [2]: 95.4%; clearance [3]: 5.83 mL/min/kg

Question: Which results are given for `CC1CN(C(=O)CC#N)C12CCCN(c1ncnc3[nH]ccc13)C2` (stereo not given)?
Answer: remaining at 1 h [1]: 73.4%; remaining at 1 h [2]: 25.1%
